Tests used:
[1] = test system: Aspergillus terreus; test: checkerboard drug interaction (FICI, MICc); format: cell-based;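 note: simplified diagonal checkerboard screen pairing antifungals with FPPS inhibitors, FICI derived by the Loewe additivity model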
Description: (§1) Drug interactions between antifungals and FPPS inhibitors were investigated using a simplified checkerboard diagonal screening method ([45]). […] FICIs were determined according to the Loewe additivity model ([17]).

[2] = test system: Aspergillus udagawae; test: checkerboard drug interaction (FICI, MICc); format: cell-based;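 note: simplified diagonal checkerboard screen pairing antifungals with FPPS inhibitors, FICI calculated using the Loewe additivity model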
Description: as §1

[3] = test system: Aspergillus lentulus; test: checkerboard drug interaction (FICI, MICc); format: cell-based;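 note: simplified diagonal checkerboard screen pairing antifungals with FPPS inhibitors, with the interaction index calculated under the Loewe additivity model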
Description: as §1

[4] = test system: Aspergillus felis; test: checkerboard drug interaction (FICI, MICc); format: cell-based;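 note: simplified diagonal checkerboard screen pairing antifungals with FPPS inhibitors, FICI calculated under the Loewe additivity model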
Description: as §1

[5] = test system: Fusarium solani; test: MIC broth microdilution (CLSI); settings: Fusarium solani 04-16-056-1862
Description: (§2) Antifungal susceptibility was determined by broth microdilution according to the CLSI guidelines described in M27-Ed4 ([16]).

[6] = test system: Trichophyton tonsurans; test: MIC broth microdilution (CLSI); settings: Trichophyton tonsurans R-168
Description: as §2

[7] = test system: Trichophyton soudanense; test: MIC broth microdilution (CLSI); settings: Trichophyton soudanense R-167
Description: as §2

[8] = test system: Lomentospora prolificans; test: checkerboard drug interaction (FICI, MICc);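 note: simplified diagonal checkerboard screen pairing antifungals with FPPS inhibitors, FICI calculated under the Loewe additivity model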
Description: as §1

[9] = test system: Aspergillus parafelis; test: checkerboard drug interaction (FICI, MICc);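 note: simplified diagonal checkerboard screen pairing antifungals with FPPS inhibitors, FICI calculated under the Loewe additivity model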
Description: as §1

[10] = test system: Aspergillus frankstonensis; test: checkerboard drug interaction (FICI, MICc);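 note: simplified diagonal checkerboard screen pairing antifungals with FPPS inhibitors, FICI calculated using the Loewe additivity model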
Description: as §1

[11] = test system: Epidermophyton floccosum; test: checkerboard drug interaction (FICI, MICc);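 note: simplified diagonal checkerboard screen pairing antifungals with FPPS inhibitors, FICI calculated under the Loewe additivity model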
Description: as §1

[12] = test system: Paraphyton cookei; test: checkerboard drug interaction (FICI, MICc);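 note: simplified diagonal checkerboard screen pairing an antifungal with an FPPS inhibitor, FICI computed under the Loewe additivity model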
Description: as §1

[13] = test system: Trichophyton interdigitale; test: checkerboard drug interaction (FICI, MICc);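 note: simplified diagonal checkerboard screen pairing antifungals with FPPS inhibitors, FICI values calculated under the Loewe additivity model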
Description: as §1

O=P(O)(O)C(O)(Cn1ccnc1)P(=O)(O)O [ZOL, zoledronate]
1.13: FICI ([8]; FLC:ZOL) | FICI ([9]; AMB:ZOL) | FICI ([10]; VOR:ZOL) | FICI ([11]; VOR:ZOL)
128: bisphosphonate MICc ([2]; ZOL with AMB) | bisphosphonate MICc ([2]; ZOL with ITR) | bisphosphonate MICc ([2]; ZOL with KET) | bisphosphonate MICc ([2]; ZOL with VOR) | bisphosphonate MICc ([9]; ZOL with VOR) | bisphosphonate MICc ([10]; ZOL with AMB) | bisphosphonate MICc ([12]; ZOL with 5FC)
32: bisphosphonate MICc ([1]; ZOL with FLC) | bisphosphonate MICc ([1]; ZOL with ITR) | bisphosphonate MICc ([3]; ZOL with AMB) | bisphosphonate MICc ([3]; ZOL with ITR) | bisphosphonate MICc ([8]; ZOL with VOR) | bisphosphonate MICc ([9]; ZOL with CAS) | bisphosphonate MICc ([9]; ZOL with ITR) | bisphosphonate MICc ([10]; ZOL with ITR) | bisphosphonate MICc ([11]; ZOL with AMB) | bisphosphonate MICc ([12]; ZOL with AMB) | bisphosphonate MICc ([13]; ZOL with VOR)
8: bisphosphonate MICc ([4]; ZOL with ITR) | bisphosphonate MICc ([10]; ZOL with FLC) | bisphosphonate MICc ([11]; ZOL with FLC) | bisphosphonate MICc ([11]; ZOL with ITR) | bisphosphonate MICc ([11]; ZOL with VOR) | bisphosphonate MICc ([12]; ZOL with ITR) | bisphosphonate MICc ([12]; ZOL with KET)
1.03: FICI ([4]; FLC:ZOL)
2.5: FICI ([4]; AMB:ZOL) | FICI ([4]; CAS:ZOL) | FICI ([8]; 5FC:ZOL)
0.5: FICI ([9]; FLC:ZOL) | FICI ([9]; VOR:ZOL) | FICI ([11]; KET:ZOL) | FICI ([12]; AMB:ZOL) | FICI ([13]; FLC:ZOL) | FICI ([13]; KET:ZOL)
0.38: FICI ([3]; KET:ZOL) | FICI ([4]; VOR:ZOL) | FICI ([12]; VOR:ZOL) | FICI ([13]; VOR:ZOL)
4: bisphosphonate MICc ([13]; ZOL with ITR)
1.01: FICI ([2]; FLC:ZOL)
512: bisphosphonate MICc ([2]; ZOL with 5FC) | bisphosphonate MICc ([3]; ZOL with 5FC) | bisphosphonate MICc ([4]; ZOL with 5FC) | bisphosphonate MICc ([8]; ZOL with CAS) | bisphosphonate MICc ([9]; ZOL with 5FC) | bisphosphonate MICc ([9]; ZOL with KET)
0.31: FICI ([3]; ITR:ZOL)
1.06: FICI ([8]; VOR:ZOL) | FICI ([9]; ITR:ZOL)
1.5: FICI ([4]; 5FC:ZOL) | FICI ([11]; 5FC:ZOL)
128 µg/mL: MIC / MEC [6]
1.25: FICI ([10]; ITR:ZOL) | FICI ([13]; CAS:ZOL)
2.17: FICI ([11]; CAS:ZOL)
0.52: FICI ([4]; ITR:ZOL)
1: FICI ([2]; ITR:ZOL) | FICI ([2]; VOR:ZOL) | FICI ([8]; KET:ZOL) | FICI ([10]; KET:ZOL) | FICI ([11]; AMB:ZOL)
0.27: FICI ([13]; ITR:ZOL)
3: FICI ([3]; 5FC:ZOL) | FICI ([8]; CAS:ZOL) | FICI ([13]; AMB:ZOL)
256 µg/mL: MIC / MEC [5]
0.75: FICI ([2]; KET:ZOL) | FICI ([8]; AMB:ZOL)
64: bisphosphonate MICc ([1]; ZOL with CAS) | bisphosphonate MICc ([3]; ZOL with CAS) | bisphosphonate MICc ([3]; ZOL with KET) | bisphosphonate MICc ([4]; ZOL with KET) | bisphosphonate MICc ([4]; ZOL with VOR) | bisphosphonate MICc ([8]; ZOL with FLC) | bisphosphonate MICc ([8]; ZOL with ITR) | bisphosphonate MICc ([9]; ZOL with AMB) | bisphosphonate MICc ([10]; ZOL with KET) | bisphosphonate MICc ([11]; ZOL with 5FC) | bisphosphonate MICc ([13]; ZOL with CAS) | bisphosphonate MICc ([13]; ZOL with FLC) | bisphosphonate MICc ([13]; ZOL with KET)
0.25: FICI ([3]; FLC:ZOL)
16: bisphosphonate MICc ([1]; ZOL with KET) | bisphosphonate MICc ([4]; ZOL with FLC) | bisphosphonate MICc ([10]; ZOL with VOR) | bisphosphonate MICc ([11]; ZOL with CAS) | bisphosphonate MICc ([11]; ZOL with KET) | bisphosphonate MICc ([12]; ZOL with CAS) | bisphosphonate MICc ([12]; ZOL with FLC) | bisphosphonate MICc ([12]; ZOL with VOR)
0.56: FICI ([3]; AMB:ZOL) | FICI ([9]; CAS:ZOL) | FICI ([10]; FLC:ZOL) | FICI ([12]; ITR:ZOL) | FICI ([12]; KET:ZOL)
2: bisphosphonate MICc ([1]; ZOL with VOR) | FICI ([2]; CAS:ZOL) | bisphosphonate MICc ([2]; ZOL with FLC) | bisphosphonate MICc ([3]; ZOL with FLC) | FICI ([9]; 5FC:ZOL) | FICI ([9]; KET:ZOL) | bisphosphonate MICc ([9]; ZOL with FLC) | FICI ([10]; AMB:ZOL) | FICI ([13]; 5FC:ZOL)
≥4: FICI ([2]; 5FC:ZOL) | FICI ([10]; 5FC:ZOL) | FICI ([10]; CAS:ZOL) | FICI ([12]; 5FC:ZOL)
0.63: FICI ([2]; AMB:ZOL) | FICI ([3]; CAS:ZOL) | FICI ([3]; VOR:ZOL) | FICI ([4]; KET:ZOL) | FICI ([8]; ITR:ZOL) | FICI ([11]; FLC:ZOL) | FICI ([11]; ITR:ZOL) | FICI ([12]; CAS:ZOL) | FICI ([12]; FLC:ZOL)
256: bisphosphonate MICc ([2]; ZOL with CAS) | bisphosphonate MICc ([3]; ZOL with VOR) | bisphosphonate MICc ([4]; ZOL with AMB) | bisphosphonate MICc ([4]; ZOL with CAS) | bisphosphonate MICc ([8]; ZOL with 5FC) | bisphosphonate MICc ([8]; ZOL with AMB) | bisphosphonate MICc ([8]; ZOL with KET) | bisphosphonate MICc ([10]; ZOL with 5FC) | bisphosphonate MICc ([10]; ZOL with CAS) | bisphosphonate MICc ([13]; ZOL with 5FC) | bisphosphonate MICc ([13]; ZOL with AMB)
64 µg/mL: MIC / MEC [7]

Reference: paper PMC12892976, “Alkylation-based optimization of antifungal FPPS inhibitors yields a potent, broad-spectrum lipophilic zoledronate derivative” (mBio, 2025)
